Experiment [1] addresses T1, microsomal triglyceride transfer protein (MTP) (Mesocricetus auratus, UniProt P55158).
T1 construct: The supernatant comprising the soluble MTP is dialysed against Tris/HCl 150 mM; from tissue; host or cells: golden hamster liver microsomes, deoxycholate-solubilised supernatant, dialysed
T1 sequence (P55158 19-895): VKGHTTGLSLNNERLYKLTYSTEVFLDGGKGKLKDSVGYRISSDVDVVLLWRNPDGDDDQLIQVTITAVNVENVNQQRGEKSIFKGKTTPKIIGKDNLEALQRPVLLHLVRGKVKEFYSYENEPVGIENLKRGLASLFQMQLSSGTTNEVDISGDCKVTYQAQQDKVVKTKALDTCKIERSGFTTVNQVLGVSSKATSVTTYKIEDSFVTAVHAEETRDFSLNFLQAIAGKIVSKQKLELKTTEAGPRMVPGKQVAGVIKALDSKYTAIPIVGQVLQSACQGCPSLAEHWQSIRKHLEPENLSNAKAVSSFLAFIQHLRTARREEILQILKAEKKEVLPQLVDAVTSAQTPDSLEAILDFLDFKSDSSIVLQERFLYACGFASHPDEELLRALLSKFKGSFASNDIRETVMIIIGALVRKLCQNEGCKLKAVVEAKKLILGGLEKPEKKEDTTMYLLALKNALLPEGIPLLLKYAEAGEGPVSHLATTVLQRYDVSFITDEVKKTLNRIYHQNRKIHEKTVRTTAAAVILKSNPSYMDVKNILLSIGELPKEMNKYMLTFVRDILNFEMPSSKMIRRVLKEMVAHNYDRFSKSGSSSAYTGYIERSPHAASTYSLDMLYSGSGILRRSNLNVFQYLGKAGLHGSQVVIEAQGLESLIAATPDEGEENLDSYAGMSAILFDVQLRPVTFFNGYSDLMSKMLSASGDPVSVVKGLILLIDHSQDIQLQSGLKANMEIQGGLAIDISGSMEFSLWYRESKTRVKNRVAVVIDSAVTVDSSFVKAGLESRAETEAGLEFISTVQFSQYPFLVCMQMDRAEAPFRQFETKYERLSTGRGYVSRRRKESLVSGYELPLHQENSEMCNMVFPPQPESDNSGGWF
Briefly: Inhibition of MTP activity: transfer of [3H]-triolein from donor liposomes to biotinylated LDL, SPA. Type of experiment: biochemical. Conditions: MTP from golden hamster liver; incubation 18-24 hours at 37° C.; read-out: IC50, concentration that allows a 50% inhibition of MTP. An outline of the steps: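 Soluble MTP was extracted with deoxycholate from golden hamster liver microsomes. It was incubated with [3H]-triolein/phosphatidylcholine donor liposomes, biotinylated LDL acceptors and compound in DMSO in HEPES/NaCl/BSA buffer, pH 7.4, for 18-24 h at 37° C. Transfer was read with streptavidin SPA beads, and IC50 was taken as 50% inhibition of transfer.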

Experiment [2] relates to apo B secretion in HepG2 cells. Briefly: Secretion of apo B in the HepG2 human cell line (sandwich-ELISA). To be noted: 24 hours incubation, culture supernatant, read-out: IC50, concentration that produces a 50% inhibition of apo B secretion in the HepG2 cells. Type of experiment: cell-based. On the procedure: Analysis of the Secretion of apo B in the HepG2 Human Cell Line:
The activity of a compound according to the invention can be evaluated by measuring the inhibition of apo B secretion in HepG2 cells.
The HepG2 cells (ECACC—No. 85011430) are used as model in the study of the in vitro hepatic secretion of lipoproteins (Dixon J. and Ginsberg H., J., Lipid. Res., 1993, 34, 167-179).
The HepG2 cells are cultured in Dulbecco's modified Eagle's medium comprising 10% foetal calf serum (DMEM and FBS—Gibco) in 96-well plates under an atmosphere of 5% carbon dioxide for 24 hours (about 70% confluence).
The test compounds are dissolved at a concentration of 2 or 10 mM in dimethyl sulfoxide (DMSO). Serial dilutions (1:3.16) are made in DMSO and are added (1:200—Robot Multimek Beckman) to the growth medium (200 μL) and then finally incubated for 24 hours in the various wells containing the HepG2 cells.
The 24-hour culture supernatant diluted to 1:5 (phosphate-buffered saline:PBS comprising 1% bovine serum albumin) is tested according to a sandwich-ELISA method specific for human apo B.
The results are expressed in terms of IC50, i.e. the concentration that produces a 50% inhibition of apo B secretion in the HepG2 cells.

In the case of `Cc1cccc(C(=O)Nc2cccc(OC3CCN(S(C)(=O)=O)CC3)c2)c1-c1ccc(OC(F)(F)F)cc1` [Example 3, 6-methyl-N-[3-[[1-(methylsulfonyl)-4-piperidinyl]oxy]phenyl]-4′-(trifluoro-methoxy)[1,1′-biphenyl]-2-carboxamide], the IC50 amounted to 49.2 nM in experiment [1] and 10.6 nM in experiment [2]. Regarding `COC(=O)N1CCC(Oc2cccc(NC(=O)c3cccc(C)c3-c3ccc(OC(F)(F)F)cc3)c2)CC1` [Example 5, methyl 4-[3-[[[6-methyl-4′-(trifluoro-methoxy)[1,1′-biphenyl]-2-yl]carbonyl]-amino]phenoxy]-1-piperidinecarboxylate], the IC50 in experiment [1] amounted to 45.1 nM; in experiment [2], 0.8 nM. With `CCOC(=O)N1CCC(Oc2cccc(NC(=O)c3cccc(C)c3-c3ccc(OC(F)(F)F)cc3)c2)CC1` [Example 6, ethyl 4-[3-[[[6-methyl-4′-(trifluoromethoxy)-[1,1′-biphenyl]-2-yl]carbonyl]amino]-phenoxy]-1-piperidinecarboxylate], the IC50 is 47.6 nM in experiment [1] and 4 nM in experiment [2]. `Cc1cccc(C(=O)Nc2cccc(OC3CCN(C(=O)OCc4ccccc4)CC3)c2)c1-c1ccc(OC(F)(F)F)cc1` [Example 7, phenylmethyl 4-[3-[[[6-methyl-4′-(trifluoro-methoxy)[1,1′-biphenyl]-2-yl]carbonyl]-amino]phenoxy]-1-piperidinecarboxylate]: the IC50 in experiment [1] stood at 45.2 nM; in experiment [2] it was 17 nM. Take `Cc1cccc(C(=O)Nc2cccc(OC3CCN(C(=O)OCC(C)C)CC3)c2)c1-c1ccc(OC(F)(F)F)cc1` [Example 8, 2-methylpropyl 4-[3-[[[6-methyl-4′-(trifluoromethoxy)[1,1-biphenyl]-2-yl]carbonyl]amino]phenoxy]-1-piperidine-carboxylate]: the IC50 in experiment [1] was 55.5 nM; in experiment [2], 25.2 nM. As for `Cc1cccc(C(=O)Nc2cccc(OC3CCN(C(=O)Oc4ccc([N+](=O)[O-])cc4)CC3)c2)c1-c1ccc(OC(F)(F)F)cc1` [Example 9, 4-nitrophenyl 4-[3-[[[6-methyl-4′-(trifluoro-methoxy)[1,1′-biphenyl]-2-yl]carbonyl]-amino]phenoxy]-1-piperidinecarboxylate], the IC50 in experiment [1] amounted to 51.8 nM; in experiment [2], 7.9 nM.

For `CSC(=O)N1CCC(Oc2cccc(NC(=O)c3cccc(C)c3-c3ccc(OC(F)(F)F)cc3)c2)CC1` [Example 10], the IC50 turned out to be 39.2 nM in experiment [1] and 12.2 nM in experiment [2]. In the case of `CCNC(=O)N1CCC(Oc2cccc(NC(=O)c3cccc(C)c3-c3ccc(OC(F)(F)F)cc3)c2)CC1` [Example 12, N-ethyl-4-[3-[[[6-methyl-4′-(trifluoro-methoxy)[1,1′-biphenyl]-2-yl]carbonyl]-amino]phenoxy]-1-piperidinecarboxamide], the IC50 worked out at 86.9 nM in experiment [1] and 53 nM in experiment [2]. `Cc1cccc(C(=O)Nc2cccc(OC3CCN(S(=O)(=O)C(C)C)CC3)c2)c1-c1ccc(OC(F)(F)F)cc1` [Example 14, 6-methyl-N-[3-[[1-[(1-methyl-ethyl)sulfonyl]-4-piperidinyl]oxy]phenyl]-4′-(trifluoromethoxy)[1,1′-biphenyl]-2-carboxamide]: the figures for the IC50 in experiment [1] and in experiment [2] were 114 nM and 62.7 nM, respectively. In the case of `Cc1cccc(C(=O)Nc2cccc(OC3CCN(S(=O)(=O)c4ccccc4)CC3)c2)c1-c1ccc(OC(F)(F)F)cc1` [Example 15, 6-methyl-N-[3-[[1-(phenylsulfonyl)-4-piperidinyl]oxy]phenyl]-4′-(trifluoro-methoxy)[1,1′-biphenyl]-2-carboxamide], the IC50 in experiment [1] stood at 55.6 nM; in experiment [2], 28.2 nM.

As for `Cc1cccc(C(=O)Nc2cccc(OC3CCN(S(=O)(=O)Cc4ccccc4)CC3)c2)c1-c1ccc(OC(F)(F)F)cc1` [Example 16], the IC50 in experiment [1] was determined as 42.5 nM; in experiment [2] it was 15.9 nM.

Take `CCCCS(=O)(=O)N1CCC(Oc2cccc(NC(=O)c3cccc(C)c3-c3ccc(OC(F)(F)F)cc3)c2)CC1` [Example 22]: the IC50 in experiment [1] came out at 45 nM; in experiment [2], 12.7 nM. The corresponding values for `COc1ccc(NC(=O)N2CCC(Oc3cccc(NC(=O)c4cccc(C)c4-c4ccc(OC(F)(F)F)cc4)c3)CC2)cc1` [Example 26] are 72.8 nM and 75.8 nM. On to `COC(=O)c1ccccc1NC(=O)N1CCC(Oc2cccc(NC(=O)c3cccc(C)c3-c3ccc(OC(F)(F)F)cc3)c2)CC1` [Example 36, methyl 2-[[[4-[3-[[[6-methyl-4′-(trifluoro-methoxy)[1,1′-biphenyl]-2-yl]carbonyl]-amino]phenoxy]-1-piperidinyl]carbonyl]-amino]benzoate], for which the IC50 in experiment [1] was 51.3 nM; in experiment [2], 67.8 nM. In the case of `Cc1cccc(C(=O)Nc2cccc(OC3CCN(C(=O)NCCc4ccccc4)CC3)c2)c1-c1ccc(OC(F)(F)F)cc1` [Example 40, 4-[3-[[[6-methyl-4′-(trifiuoromethoxy)[1,1′-biphenyl]-2-yl]carbonyl]amino]phenoxy]-N-(2-phenylethyl)-1-piperidinecarbox-amide], the IC50 in experiment [1] was 69.1 nM; in experiment [2] it was 13.7 nM. In the case of `Cc1ccc(C(=O)N2CCC(Oc3cccc(NC(=O)c4ccccc4-c4ccc(OC(F)(F)F)cc4)c3)CC2)cc1` [Example 130, N-[3-[[1-(4-methylbenzoyl)-4-piperidinyl]-oxy]phenyl]-4′-(trifiuoromethoxy)[1,1′-biphenyl]-2-carboxamide], the IC50 in experiment [1] came out at 219 nM. As to `COC(=O)CCC(=O)N1CCC(Oc2cccc(NC(=O)c3ccccc3-c3ccc(OC(F)(F)F)cc3)c2)CC1` [Example 133, methyl γ-oxo-4-[3-[[[4′-(trifluoromethoxy)-[1,1′-biphenyl]-2-yl]carbonyl]amino]-phenoxy]-1-piperidinebutanoate], the IC50 in experiment [1] came to 296 nM. On to `C/C=C/C(=O)N1CCC(Oc2cccc(NC(=O)c3ccccc3-c3ccc(OC(F)(F)F)cc3)c2)CC1` [Example 137, N-[3-[[1-[(2E)-1-oxo-2-butenyl]-4-piperi-dinyl]oxy]phenyl]-4′-(trifluoromethoxy)-[1,1′-biphenyl]-2-carboxamide], for which the IC50 in experiment [1] stood at 209 nM. In the case of `COc1ccc(C(=O)N2CCC(Oc3cccc(NC(=O)c4ccccc4-c4ccc(OC(F)(F)F)cc4)c3)CC2)cc1` [Example 138, N-[3-[[1-(4-methoxybenzoyl)-4-piperidin-yl]oxy]phenyl]-4′-(trifluoromethoxy)[1,1′-biphenyl]-2-carboxamide], in experiment [1], the IC50 was 221 nM.

For `CCOC(=O)CCC(=O)N1CCC(Oc2cccc(NC(=O)c3ccccc3-c3ccc(OC(F)(F)F)cc3)c2)CC1` [Example 139, ethyl γ-oxo-4-[3-[[[4′-(trifluoromethoxy)-[1,1′-biphenyl]-2-yl]carbonyl]amino]-phenoxy]-1-piperidinebutanoate], the IC50 in experiment [1] is 309 nM. On the same count and under the same terms, in the case of `CC(C)(C)C(=O)N1CCC(Oc2cccc(NC(=O)c3ccccc3-c3ccc(OC(F)(F)F)cc3)c2)CC1` [Example 140, N-[3-[[1-(2,2-dimethyl-1-oxopropyl)-4-piperidinyl]oxy]phenyl]-4′-(trifluorometh-oxy)[1,1′-biphenyl]-2-carboxamide] it was 176 nM. On to `Cc1cccc(C(=O)Nc2cccc(OC3CCN(C(=O)c4ccccc4)CC3)c2)c1-c1ccc(OC(F)(F)F)cc1` [Example 143, N-[3-[(1-benzoyl-4-piperidinyl)oxy]phenyl]-6-methyl-4′-(trifluoromethoxy)[1,1′-biphenyl]-2-carboxamide], for which the IC50 in experiment [1] was 118 nM.

For the origin of these results see patent US7723358B2, “Aroyl-O-piperidine derivatives for the treatment of diabetes-related problems” (Merck Patent GmbH, priority 2004, dated 2010).
